# Measurements published in paper PMC10343355, “Finding the Right Solvent: A Novel Screening Protocol for Identifying Environmentally Friendly and Cost-Effective Options for Benzenesulfonamide” (Molecules, 2023).
# Assay: Shake-flask solubility of BSA in neat solvents and aqueous binary mixtures, spectrophotometric determination at 264 nm
# Assay type: physicochemical
# Settings: for log(x1)exp: mole fraction solubility
# Experimental: In order to determine the solubility of BSA in the studied solvents, excess amounts of it were added to test tubes pre-filled with a particular solvent or a binary mixture of this solvent and water in different molar proportions. Saturated solutions prepared in this manner were placed in an ES-20/60 Orbital Shaker Incubator from Biosan (Riga, Latvia) and incubated for 24 h at different temperatures. Four temperatures were used in the range from 25 °C to 40 °C with 5 °C intervals. The temperature in the incubator was adjusted with 0.1-degree accuracy with a 0.5-degree variance in a 24 h cycle. Simultaneously, the samples were mixed at 60 rev/min. In the next stage, the filtration of the samples took place, utilizing syringes equipped with PTFE filters with 0.22 µm pore size. Since the temperature difference between the measured solutions and used instruments can possibly lead to precipitation, all of the used test tubes, pipette tips, syringes, and filters were initially heated. This was carried out by placing them in the same incubator as the samples and heating them at exactly the same temperature prior to the handling of the samples. This was particularly important in the case of elevated temperatures, as the difference between, e.g., 40 °C and room temperature is quite extensive. Then, small amounts of the obtained filtrate were diluted in different test tubes containing methanol and measured spectrophotometrically. In order to determine the mole fractions of BSA in the samples, their density was also measured by weighing a 1 mL volume of each of the solutions, taken by using an Eppendorf Reference 2 pipette (Hamburg, Germany), in 10 mL volumetric flasks. The systematic error of the pipette was 6 μL. The precision of the RADWAG (Radom, Poland) AS 110.R2 PLUS analytical balance that was used in this study was 0.1 mg. The A360 spectrophotometer from AOE Instruments (Shanghai, China) was used for solubility determination. The spectra were recorded in the 190 nm to 400 nm wavelength range with a 1 nm resolution. Methanol was used for both the dilution of the samples and the initial calibration of the spectrophotometer. The analytical wavelength was determined to be 264 nm, and the absorbance of the samples at this wavelength was used for the determination of the BSA concentration in the samples and the subsequent calculation of its mole fractions. Three separate measurements were used, and the resulting values were averaged. The calibration curve for BSA was generated by preparing successive dilutions of an initial stock solution and performing spectrophotometric measurements of the resulting solutions with decreasing concentrations. The molar concentrations of measured solutions were 3.19 × 10^−3, 2.84 × 10^−3, 2.46 × 10^−3, 2.13 × 10^−3, 1.88 × 10^−3, 1.60 × 10^−3, 1.26 × 10^−3, 9.53 × 10^−4, 5.70 × 10^−4, and 4.80 × 10^−4 M). The relationship between the absorbance values at 264 nm and the solution concentration was described by the linear equation A = 470.86 × C + 0.0093 (A—absorbance; C—molar concentration), with a determination coefficient R^2 equal 0.9996, denoting high linearity.
smiles,measurement,setting,value
"NS(=O)(=O)c1ccccc1 [BSA, Benzenesulfonamide]","solubility, X^exp × 10^3","4FM+water, x2*(4FM)=0.2, 298.15 K",23.42 ± 0.86 mole fraction × 10^3
same,"solubility, X^exp × 10^3","4FM+water, x2*(4FM)=0.2, 303.15 K",32.61 ± 1.65 mole fraction × 10^3
same,"solubility, X^exp × 10^3","4FM+water, x2*(4FM)=0.2, 308.15 K",48.14 ± 1.59 mole fraction × 10^3
same,"solubility, X^exp × 10^3","4FM+water, x2*(4FM)=0.2, 313.15 K",69.19 ± 2.56 mole fraction × 10^3
same,"solubility, X^exp × 10^3","4FM+water, x2*(4FM)=0.4, 298.15 K",45.67 ± 0.33 mole fraction × 10^3
same,"solubility, X^exp × 10^3","4FM+water, x2*(4FM)=0.4, 303.15 K",68.93 ± 1.12 mole fraction × 10^3
same,"solubility, X^exp × 10^3","4FM+water, x2*(4FM)=0.4, 308.15 K",102.78 ± 3.56 mole fraction × 10^3
same,"solubility, X^exp × 10^3","4FM+water, x2*(4FM)=0.4, 313.15 K",142.57 ± 6.01 mole fraction × 10^3
same,"solubility, X^exp × 10^3","4FM+water, x2*(4FM)=0.6, 298.15 K",61.48 ± 0.85 mole fraction × 10^3
same,"solubility, X^exp × 10^3","4FM+water, x2*(4FM)=0.6, 303.15 K",101.16 ± 0.91 mole fraction × 10^3
same,"solubility, X^exp × 10^3","4FM+water, x2*(4FM)=0.6, 308.15 K",146.31 ± 6.19 mole fraction × 10^3
same,"solubility, X^exp × 10^3","4FM+water, x2*(4FM)=0.6, 313.15 K",196.38 ± 7.85 mole fraction × 10^3
same,"solubility, X^exp × 10^3","4FM+water, x2*(4FM)=0.8, 298.15 K",68.53 ± 0.63 mole fraction × 10^3
same,"solubility, X^exp × 10^3","4FM+water, x2*(4FM)=0.8, 303.15 K",118.09 ± 6.45 mole fraction × 10^3
same,"solubility, X^exp × 10^3","4FM+water, x2*(4FM)=0.8, 308.15 K",178.71 ± 6.67 mole fraction × 10^3
same,"solubility, X^exp × 10^3","4FM+water, x2*(4FM)=0.8, 313.15 K",242.26 ± 2.09 mole fraction × 10^3
same,"solubility, X^exp × 10^3","DMF+water, x2*(DMF)=0.2, 298.15 K",42.18 ± 0.83 mole fraction × 10^3
same,"solubility, X^exp × 10^3","DMF+water, x2*(DMF)=0.2, 303.15 K",46.69 ± 1.75 mole fraction × 10^3
same,"solubility, X^exp × 10^3","DMF+water, x2*(DMF)=0.2, 308.15 K",54.78 ± 1.76 mole fraction × 10^3
same,"solubility, X^exp × 10^3","DMF+water, x2*(DMF)=0.2, 313.15 K",63.21 ± 1.40 mole fraction × 10^3
same,"solubility, X^exp × 10^3","DMF+water, x2*(DMF)=0.4, 298.15 K",161.16 ± 3.97 mole fraction × 10^3
same,"solubility, X^exp × 10^3","DMF+water, x2*(DMF)=0.4, 303.15 K",179.12 ± 10.87 mole fraction × 10^3
same,"solubility, X^exp × 10^3","DMF+water, x2*(DMF)=0.4, 308.15 K",202.07 ± 2.93 mole fraction × 10^3
same,"solubility, X^exp × 10^3","DMF+water, x2*(DMF)=0.4, 313.15 K",233.72 ± 14.10 mole fraction × 10^3
same,"solubility, X^exp × 10^3","DMF+water, x2*(DMF)=0.6, 298.15 K",231.63 ± 6.50 mole fraction × 10^3
same,"solubility, X^exp × 10^3","DMF+water, x2*(DMF)=0.6, 303.15 K",253.07 ± 9.75 mole fraction × 10^3
same,"solubility, X^exp × 10^3","DMF+water, x2*(DMF)=0.6, 308.15 K",281.23 ± 1.05 mole fraction × 10^3
same,"solubility, X^exp × 10^3","DMF+water, x2*(DMF)=0.6, 313.15 K",319.28 ± 11.90 mole fraction × 10^3
same,"solubility, X^exp × 10^3","DMF+water, x2*(DMF)=0.8, 298.15 K",268.17 ± 4.27 mole fraction × 10^3
same,"solubility, X^exp × 10^3","DMF+water, x2*(DMF)=0.8, 303.15 K",286.69 ± 8.71 mole fraction × 10^3
same,"solubility, X^exp × 10^3","DMF+water, x2*(DMF)=0.8, 308.15 K",317.90 ± 8.49 mole fraction × 10^3
same,"solubility, X^exp × 10^3","DMF+water, x2*(DMF)=0.8, 313.15 K",356.68 ± 8.53 mole fraction × 10^3
same,"solubility, X^exp × 10^3","DMSO+water, x2*(DMSO)=0.2, 298.15 K",35.84 ± 1.56 mole fraction × 10^3
same,"solubility, X^exp × 10^3","DMSO+water, x2*(DMSO)=0.2, 303.15 K",40.39 ± 0.41 mole fraction × 10^3
same,"solubility, X^exp × 10^3","DMSO+water, x2*(DMSO)=0.2, 308.15 K",45.37 ± 0.84 mole fraction × 10^3
same,"solubility, X^exp × 10^3","DMSO+water, x2*(DMSO)=0.2, 313.15 K",50.66 ± 1.03 mole fraction × 10^3
same,"solubility, X^exp × 10^3","DMSO+water, x2*(DMSO)=0.4, 298.15 K",136.28 ± 5.21 mole fraction × 10^3
same,"solubility, X^exp × 10^3","DMSO+water, x2*(DMSO)=0.4, 303.15 K",153.75 ± 0.89 mole fraction × 10^3
same,"solubility, X^exp × 10^3","DMSO+water, x2*(DMSO)=0.4, 308.15 K",175.06 ± 5.16 mole fraction × 10^3
same,"solubility, X^exp × 10^3","DMSO+water, x2*(DMSO)=0.4, 313.15 K",198.55 ± 12.9 mole fraction × 10^3
same,"solubility, X^exp × 10^3","DMSO+water, x2*(DMSO)=0.6, 298.15 K",257.01 ± 5.42 mole fraction × 10^3
same,"solubility, X^exp × 10^3","DMSO+water, x2*(DMSO)=0.6, 303.15 K",279.84 ± 7.39 mole fraction × 10^3
same,"solubility, X^exp × 10^3","DMSO+water, x2*(DMSO)=0.6, 308.15 K",307.25 ± 8.78 mole fraction × 10^3
same,"solubility, X^exp × 10^3","DMSO+water, x2*(DMSO)=0.6, 313.15 K",335.53 ± 2.01 mole fraction × 10^3
same,"solubility, X^exp × 10^3","DMSO+water, x2*(DMSO)=0.8, 298.15 K",301.83 ± 4.01 mole fraction × 10^3
same,"solubility, X^exp × 10^3","DMSO+water, x2*(DMSO)=0.8, 303.15 K",324.42 ± 10.85 mole fraction × 10^3
same,"solubility, X^exp × 10^3","DMSO+water, x2*(DMSO)=0.8, 308.15 K",352.69 ± 7.04 mole fraction × 10^3
same,"solubility, X^exp × 10^3","DMSO+water, x2*(DMSO)=0.8, 313.15 K",381.96 ± 8.16 mole fraction × 10^3
same,"solubility, X^exp × 10^3","DMSO+water, x2*=0.0 (neat water), 298.15 K",0.56 ± 0.03 mole fraction × 10^3
same,"solubility, X^exp × 10^3","DMSO+water, x2*=0.0 (neat water), 303.15 K",0.83 ± 0.01 mole fraction × 10^3
same,"solubility, X^exp × 10^3","DMSO+water, x2*=0.0 (neat water), 308.15 K",1.17 ± 0.04 mole fraction × 10^3
same,"solubility, X^exp × 10^3","DMSO+water, x2*=0.0 (neat water), 313.15 K",1.53 ± 0.03 mole fraction × 10^3
same,log(x1)exp,"solvent 4-Formylmorpholine, T 25.00 °C",-1.16
same,log(x1)exp,"solvent 4-Formylmorpholine, T 30.00 °C",-0.88
same,log(x1)exp,"solvent 4-Formylmorpholine, T 35.00 °C",-0.70
same,log(x1)exp,"solvent 4-Formylmorpholine, T 40.00 °C",-0.55
same,log(x1)exp,"solvent DMF, T 25.00 °C",-0.54
same,log(x1)exp,"solvent DMF, T 30.00 °C",-0.51
same,log(x1)exp,"solvent DMF, T 35.00 °C",-0.47
same,log(x1)exp,"solvent DMF, T 40.00 °C",-0.42
same,log(x1)exp,"solvent DMSO, T 25.00 °C",-0.50
same,log(x1)exp,"solvent DMSO, T 30.00 °C",-0.47
same,log(x1)exp,"solvent DMSO, T 35.00 °C",-0.43
same,log(x1)exp,"solvent DMSO, T 40.00 °C",-0.40
same,log(x1)exp,"solvent water, T 25.00 °C",-3.25
same,log(x1)exp,"solvent water, T 30.00 °C",-3.08
same,log(x1)exp,"solvent water, T 35.00 °C",-2.93
same,log(x1)exp,"solvent water, T 40.00 °C",-2.82
same,"solubility, X^exp × 10^3","x2*=1.0 (neat 4FM), 298.15 K",69.45 ± 0.49 mole fraction × 10^3
same,"solubility, X^exp × 10^3","x2*=1.0 (neat 4FM), 303.15 K",132.21 ± 4.61 mole fraction × 10^3
same,"solubility, X^exp × 10^3","x2*=1.0 (neat 4FM), 308.15 K",200.82 ± 7.43 mole fraction × 10^3
same,"solubility, X^exp × 10^3","x2*=1.0 (neat 4FM), 313.15 K",279.66 ± 2.42 mole fraction × 10^3
same,"solubility, X^exp × 10^3","x2*=1.0 (neat DMF), 298.15 K",288.65 ± 1.99 mole fraction × 10^3
same,"solubility, X^exp × 10^3","x2*=1.0 (neat DMF), 303.15 K",308.50 ± 5.81 mole fraction × 10^3
same,"solubility, X^exp × 10^3","x2*=1.0 (neat DMF), 308.15 K",336.89 ± 13.52 mole fraction × 10^3
same,"solubility, X^exp × 10^3","x2*=1.0 (neat DMF), 313.15 K",378.60 ± 8.94 mole fraction × 10^3
same,"solubility, X^exp × 10^3","x2*=1.0 (neat DMSO), 298.15 K",319.77 ± 2.83 mole fraction × 10^3
same,"solubility, X^exp × 10^3","x2*=1.0 (neat DMSO), 303.15 K",342.67 ± 5.19 mole fraction × 10^3
same,"solubility, X^exp × 10^3","x2*=1.0 (neat DMSO), 308.15 K",369.38 ± 9.57 mole fraction × 10^3
same,"solubility, X^exp × 10^3","x2*=1.0 (neat DMSO), 313.15 K",402.31 ± 9.04 mole fraction × 10^3
